Results as given in patent publication US20060258748A1 (Chevron U.S.A. Inc., priority 2005, published 2006).

Key:
[1] = test system: NMDA receptor; test: [3H]MK-801 binding assay, NMDA receptors in guinea pig brain membranes; settings: for Relative affinity: compared to that of Memantine
Experimental: Hartley guinea pigs were sacrificed, and their brains were quickly removed and weighed. The brains then were homogenized in 50 mM Tris HCl buffer, pH 7.7, using a Polytron homogenizer. The homogenate was centrifuged at 40,000×g for 15 min, rehomogenized, and centrifuged again. The final pellet was resuspended in Tris-HCl, pH 7.7, at a final concentration of 6.67 mg original wet weight of tissue/ml. […] The samples were then filtered through glass fiber filters on a Tomtec cell harvester. The filters were washed 3 times with 3 ml of cold buffer. Filters were dried overnight and counted next day on a Wallac Betaplate Reader.
The binding experiments were conducted as follows. […] For each compound, graphs were prepared containing individual competition curves obtained for that compound. IC50 values and Hill coefficients were calculated using the program Prism. Ki values were calculated using the Chang Prusoff transformation: Ki═IC50/(1+L/Kd)
where L is radioligand concentration and Kd is the binding affinity of the radioligand, as determined previously by saturation analysis. […] In each experiment, one standard compound was simultaneously run on each 96 well plate.

[2] = Dissolving compounds for 10 mM stock solutions; type: physicochemical; settings: molecusol, acetic acid, propylene glycol, then hot water
Experimental: Following assay establishment, the test compounds were tested for binding affinities. The concentrations selected for the experiments were chosen according to what was found for memantine in our assay. The first task was to dissolve the compounds and make up the 10 mM stock solution for further experiments. Those compounds that were made into salt format were easy to dissolve in deionized water, but the other compounds were difficult to bring into solution. Several “assay friendly” solvents have been tried, such as molecusol, acetic acid and propylene glycol followed by putting the vial into hot water.

[3] = test system: NMDA receptor; test: Whole-cell voltage-clamp recording of NMDA evoked currents in hypocretin neurons of hypothalamic slices; type: cell-based, mouse; settings: washout of the compound

| Structure (SMILES) | Relative affinity [1] | solubility in assay friendly solvents [2] | other results |
| --- | --- | --- | --- |
| OC12CC3CC4C5CC(CC41)CC2C5C3 [MDT-10, 1-hydroxydiamantane] | 0.015 | went into solution |  |
| NC12CC3CC4C1CC1CC2C(C3)C4(N)C1 [MDT-4, 1,6-diaminodiamantane] | 0.006 |  |  |
| OC12CC3C4CC5C6CC7(O)CC5C(C4C1)C(C2)(C7)C36 [MDT-15, 9,15-dihydroxytriamantane] |  | went into solution |  |
| OC12CC3C4CC5(O)CC3C(C1)C(C5)C4C2 [MDT-14, 4,9-dihydroxydiamantane] |  | went into solution |  |
| NC12CC3C4CC5(N)CC3C(C1)C(C5)C4C2 [MDT-5, 4,9-diaminodiamantane] | 0.002 |  |  |
| CC12CC3CC(C)(C1)CC(N)(C3)C2 [Memantine, 1-amino-3,5-dimethyladamantane, reference compound] | 1 |  | Ki ([1]; [3H]MK-801 1 nM, guinea pig brain membranes, read-out: Ki at the NMDA site (standard compounds)): 602 ± 27 nM |
| OC12CC3CC4C1CC1CC2C(C3)C4(O)C1 [MDT-12, 1,6-dihydroxydiamantane] | 0.077 | went into solution |  |
| NC12CC3CC4C5CC(CC41)CC2C5C3 [MDT-2, 1-aminodiamantane] | 0.094 |  |  |
| CC12CC3CC4C1CC1CC4[C@](N)(C3)C2C1 [MDT-22, 1-methyl-7-aminodiamantane] |  |  | reversibility of inhibition of NMDA evoked currents upon washout [3]: reversible |
| OC12CC3C4CC5CC3C(C1)C(C5)C4C2 [MDT-11, 4-diamantanol] |  | went into solution |  |
| O=C(O)C12CC3C4CC5(C(=O)O)CC3C(C1)C(C5)C4C2 [MDT-20, 4,9-diamantane dicarboxylic acid] |  | did not go into solution, or came out with time |  |
| O=C(O)C12CC3CC4C1CC1CC2C(C3)C4(C(=O)O)C1 [MDT-19, 1,6-diamantane dicarboxylic acid] | 0.091 | did not go into solution, or came out with time |  |
| OC12CC3CC4C1CC1CC4C(O)(C3)C2C1 [MDT-13, 1,7-dihydroxydiamantane] |  | went into solution |  |
| NC12CC3C4CC5CC3C(C1)C(C5)C4C2 [MDT-3, 4-aminodiamantane] | 0.017 |  |  |
| O=C(O)C12CC3CC4C5CC(CC41)CC2C5C3 [MDT-17, 1-diamantane carboxylic acid] | 0.063 | did not go into solution, or came out with time |  |
| CC12CC3CC4C1CC1CC2C(N)(C3)C4(C)C1 (stereo not drawn) [MDT-23, 1,6-dimethyl-2-aminodiamantane] |  |  | reversibility of inhibition of NMDA evoked currents upon washout [3]: not reversible |
